From publication PMC8838521, “Antimicrobial, Cytotoxic and Mutagenic Activity of Gemini QAS Derivatives of 1,4:3,6-Dianhydro-L-iditol” (Molecules, 2022)
“And” between values parts separate entries of the source, which are not always exact repeats. Equal entries are not always repeated.

Key:
[1] = test system: Candida albicans ATCC 10231; assay: Antimicrobial activity, microdilution MIC, C. albicans; format: cell-based; settings: Candida albicans, ATCC10231, 24 h, MIC90, 24 h, RPMI; read-out: MIC C. albicans ATCC 10231
Experimental: The antimicrobial potential of the tested agents was evaluated against two reference strains of bacteria: Staphylococcus aureus ATCC 25923 and Escherichia coli K12, two reference strains of pathogenic yeasts, Candida albicans ATCC10231 and Candida glabrata DSMZ11226, as well as 20 strains of clinical isolates of S. aureus collected from patients with skin and soft tissue infections (n = 8) and strains derived from subclinical bovine mastitis milk samples (n = 12). Four of these strains, two isolated from human infections and two isolated from bovine mastitis, were classified as MRSA (Methicillin-resistant Staphylococcus aureus). All of them were mecA positive and their methicillin resistance was confirmed with the disc diffusion assay. The remaining 16 strains were MSSA (Methicillin-sensitive Staphylococcus aureus). The assays were performed using a serial, two-fold dilution method in 96-well microtiter plates under conditions recommended by the Clinical and Laboratory Standards Institute (CLSI, Pittsburgh, PA, USA). The aim of this procedure was the determination of the MIC parameter (Minimum Inhibitory Concentration)—the minimum concentration of a tested agent capable to inhibit the growth of a specified strain of microorganism. The agents were solubilized in deionized, sterile water to a final concentration of […]. Subsequently, solutions were mixed (1:1 (v/v)) with 2 × concentrated liquid medium, Mueller-Hinton Broth 2—cation adjusted (MHB2) for evaluation of antibacterial activity and RPMI in the case of evaluation of the antifungal activity. […] Subsequently, the solutions were mixed with MHB2 or RPMI medium to get the final concentration of 8.192 mg/mL (8192 µg/mL). In the next step, the serial, two-fold dilutions of the tested agents (over the range of concentrations from 8192 to 8 µg/mL for reference strains of bacteria and yeasts and from 512 to 1.0 µg/mL for clinical isolates of S. aureus) were prepared in 96-well microtitration plates in the final volume of 100 μL of the appropriate medium.
The pure cultures of yeast strains were grown on the Sabouraud Dextrose Agar (SDA) for 18–24 h at 37 °C. Suspensions of the microorganisms were prepared by taking one loop of pure culture into sterile water and adjusting optical density to 0.1 at 660 nm and further 50-fold dilution in RPMI 1640 medium resulting in cells concentration of approximate 2 × 10^4 CFU/mL. One hundred μL of that suspension was inoculated to the wells of the microtitration plate containing appropriate dilutions of the agents. The positive growth control of each strain (both bacteria and yeasts) was performed in the wells without the tested substances. The negative control containing only the media was included in each assay. Microtiter plates were incubated at 37 °C for 24 h. Following the incubation period, determination of the MIC values of the tested agents was carried out by measuring the absorbance at 531 nm using a Victor^3 microplate reader (Perkin Elmer, Inc., Waltham, MA, USA). The lowest concentration of the agent causing inhibition of growth equal to or higher than 90% (MIC90) of growth control was taken as the MIC value. Each test was repeated three times.

[2] = test system: human keratinocytes (HaCaT cell line); assay: Cytotoxicity, MTT assay; format: cell-based; settings: Homo sapiens, HaCaT; MTT, 24 h incubation; read-out: HaCaT IC50
Experimental: To assess the cytotoxicity of QAS (IC50), the MTT assay on 96-well polystyrene plates was performed for human keratinocytes (HaCaT, Elabscience Biotechnology Inc., Houston, Texas, USA). The assay utilizes colorimetric determination of the cell metabolic activity and the color intensity reflects the number of live cells that can be measured spectrophotometrically. The cell line was cultured in a Dulbecco’s modified Eagle Medium (Invitrogen) supplemented with 10% fetal bovine serum (Sigma Aldrich) (v/v), 100 units/mL of penicillin, 100 μg/mL of streptomycin, and 2 mM L-glutamine and was stored at 37 °C in a humidified 5% CO2 incubator. Briefly, a day after plating of 500 cells per well, a series of concentrations (0.5–200 μg/mL) of the test compounds was applied. DMSO was added to the control cells at a final concentration of 1.0% (v/v), which was related to the maximal concentration of the solvent compounds used in the experiment. After 24 h of incubation with the QAS at 37 °C (humidified 5% CO2 incubator), a medium containing 1 mg/mL of MTT (3-(4,5-dimethylthiazol-2-yl)-2,5-diphenyltetrazolium bromide) was added to the wells up to a final concentration of 0.5 mg/mL. Subsequently, the plates were incubated at 37 °C for 4 h. Then, the medium was removed by suction, and the formazan product was solubilized with DMSO. The background absorbance at 630 nm was subtracted from that at 570 nm for each well (Epoch, BioTek Instruments, Winooski, VT, USA). Six replicates were conducted for each concentration. All experiments were repeated at least twice and the resulting IC50 values were calculated with GraFit 7 software (v. 7.0, Erithacus, Berkley, CA, USA).

MIC [1] | Structure (SMILES) | IC50 [2]
32 µg/mL and 40 µM | CCCCCCCCCC[N+](C)(C)C1COC2C1OCC2[N+](C)(C)CCCCCCCCCC [QAS 10, N,N’-(1,4:3,6-Dianhydro-2,5-dideoxy-L-iditol-2,5-diyl)-bis(N,N-dimethyl-N-decylammonium) Ditrifluoromethanesulfonate] | 12.8 ± 1.25 µg/mL
1020 µg/mL and 1410 µM | CCCCCCCC[N+](C)(C)C1COC2C1OCC2[N+](C)(C)CCCCCCCC (stereo not shown) [QAS 9] | > 100 µg/mL
